Laboratory results reported in patent publication US20250134907A1, “FUSED DIAZEPINES AS AGONISTS OF THE INSULIN-LIKE 3 (INSL3) PEPTIDE RECEPTOR RXFP2 AND METHODS OF USE THEREOF” (The United States of America,as represented by the …, priority 2022, published 2025).

How the values were obtained:
RXFP1 = target: T1, RXFP1 (Homo sapiens, UniProt Q9HBX9); test: HTRF cAMP counter-screen in HEK-RXFP1 cells; assay type: cell-based; settings: compound 10 μM-[…], IBMX 200 μM
T1 construct: expressed in transfected cells
T1 sequence (Q9HBX9 1-757): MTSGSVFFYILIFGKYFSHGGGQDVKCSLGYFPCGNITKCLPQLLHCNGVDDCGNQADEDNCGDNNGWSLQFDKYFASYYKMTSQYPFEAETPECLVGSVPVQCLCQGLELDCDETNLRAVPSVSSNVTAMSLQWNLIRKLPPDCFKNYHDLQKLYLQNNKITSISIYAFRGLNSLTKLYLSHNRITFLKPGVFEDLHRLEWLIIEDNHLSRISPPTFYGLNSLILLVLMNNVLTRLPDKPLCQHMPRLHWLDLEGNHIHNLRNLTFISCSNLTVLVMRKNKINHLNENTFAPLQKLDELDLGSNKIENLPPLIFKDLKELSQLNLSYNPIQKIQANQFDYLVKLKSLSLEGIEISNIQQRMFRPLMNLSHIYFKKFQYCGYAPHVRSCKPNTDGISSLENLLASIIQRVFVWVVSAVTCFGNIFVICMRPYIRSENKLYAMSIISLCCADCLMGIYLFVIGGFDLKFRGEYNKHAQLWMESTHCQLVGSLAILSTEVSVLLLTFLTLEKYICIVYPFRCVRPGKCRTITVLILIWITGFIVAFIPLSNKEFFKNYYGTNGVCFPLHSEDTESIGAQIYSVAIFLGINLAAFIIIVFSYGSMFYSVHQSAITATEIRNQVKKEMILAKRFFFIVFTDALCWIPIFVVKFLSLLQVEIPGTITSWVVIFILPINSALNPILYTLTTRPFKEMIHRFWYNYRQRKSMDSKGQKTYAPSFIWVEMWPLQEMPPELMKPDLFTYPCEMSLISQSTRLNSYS
Source text: HEK293T cells stably transfected with RXFP1 (HEK-RXFP1) were used to test compound specificity towards the RXFP2 receptor using the HTRF Gs dynamic cAMP assay kit (PerkinElmer, Waltham, MA). This is a competitive immunoassay where a time-resolved fluorescence resonance energy (TR-FRET) signal is produced when exogenous d2-labeled cAMP (acceptor) binds to europium cryptate-conjugated anti-cAMP antibody (donor). No signal is produced when endogenous cAMP binds to the antibody. Thus, the TR-FRET signal is inversely proportional to the concentration of cAMP produced by the cells. The HTRF cAMP assay was carried out in the presence of isobutylmethylxanthine phosphodiesterase inhibitor (IBMX) at 200 μM to amplify the cAMP signal. For this assay, cells were seeded in 96-well flat-bottom opaque plates at 30,000 cells/well in 60 μL/well of serum-free DMEM medium and allowed to attach overnight at 37° C., 5% CO2. The next morning, cells were treated with 1 μL/well of compound (10 μM-1.2 nM), 1 μM forskolin, or DMSO vehicle. Cells were also treated with 4 μL of 10 nM Relaxin2 (Peprotech, Cranbury, NJ) as a positive control or vehicle (serum-free DMEM+IBMX). […] Cells were incubated for 1 hour at room temperature, and then the signal was read on a CLARIOstar plate reader (BMG Labtech, Germany). […]

[1] = test system: gubernaculum of female embryos; test: Gubernaculum development in female embryos of treated pregnant mice; assay type: in vivo, C57BL/6J mice; settings: 30 mg/kg intraperitoneal to pregnant females, embryonic day 12.5 to 17.5
Source text: The role of INSL3 and RXFP2 in gubernaculum development for the initial transabdominal descent of the testis during embryogenesis has been widely characterized in Insl3^-/- and Rxfp2^-/- mouse models of cryptorchidism. […] The gubernaculum is composed of the gubernacular bulb and cord, and it has begun invagination into the abdominal wall in preparation for the inguinoscrotal stage of testicular descent, which will finalize after birth. […] The hypothesis for our experiment is that by injecting pregnant females with the RXFP2 agonists during this embryonic development window, gubemaculum development could be induced in female embryos, which has been previously shown in female embryos overexpressing INSL3. […] For this assay, whole embryos were fixed in 10% formaldehyde for 24 hours. Afterwards, embryos were washed twice with PBS for 1 hour, followed by 3 consecutive washes with increasing concentrations of ethanol (30%, 50% and 70%) for 30 minutes. Fixed embryos were prepared for histology using an automatic tissue processor (Leica TP1020, Leica Biosystems, Germany), embedded in paraffin wax, and 5-7 μm sagittal serial sections were cut using an automated rotary microtome (Leica RM2255, Leica Biosystems, Germany). […] At least 4 embryos were analyzed per treatment group.

SMILES: O=C1Nc2ccc(-c3cccc(C(F)(F)F)c3)cc2C(=O)N2CCN(C(=O)COc3ccc(OC(F)(F)F)cc3Br)C[C@@H]12 [Example 123, (S)-2-(2-(2-bromo-4-(trifluoromethoxy)phenoxy)acetyl)-8-(3-(trifluoromethyl)phenyl)-1,3,4,12a-tetrahydrobenzo[e]pyrazino[1,2-a][1,4]diazepine-6,12 (2H, 11H)-dione]
- RXFP1 cAMP response (activation of RXFP1) (RXFP1): do not activate

SMILES: O=C1Nc2ccc(-c3cc(C(F)(F)F)cc(C(F)(F)F)c3)cc2C(=O)N2CCN(C(=O)COc3ccc(OC(F)(F)F)cc3Br)C[C@@H]12 [Example 158, (S)-8-(3,5-Bis(trifluoromethyl)phenyl)-2-(2-(2-bromo-4-(trifluoromethoxy)phenoxy)acetyl)-1,3,4,12a-tetrahydrobenzo[e]pyrazino[1,2-a][1,4]diazepine-6,12 (2H, 11H)-dione]
- RXFP1 cAMP response (activation of RXFP1) (RXFP1): do not activate
- gubernaculum morphology in embryonic day 18.5 female embryos [1]: male-like invagination of the gubemaculum

SMILES: O=C1Nc2ccc(-c3cc(C(F)(F)F)cc(C(F)(F)F)c3)cc2C(=O)N2CCN(C(=O)COc3ccc(OC(F)(F)F)cc3I)C[C@@H]12 [Example 187, (S)-8-(3,5-bis(trifluoromethyl)phenyl)-2-(2-(2-iodo-4-(trifluoromethoxy)phenoxy)acetyl)-1,3,4,12a-tetrahydrobenzo[e]pyrazino[1,2-a][1,4]diazepine-6,12 (2H, 11H)-dione]
- gubernaculum morphology in embryonic day 18.5 female embryos [1]: male-like invagination of the gubemaculum
